Test results from US20250188075A1, “SUBSTITUTED HETEROCYCLIC CSNK1 INHIBITORS” (The Broad Institute, Inc., priority 2022, published 2025).

These compounds were tested against human Ether-a-go-go-Related Gene (hERG) potassium channel (Homo sapiens (Human), UniProt Q12809) (assay: hERG inhibition assay, automated voltage clamp). Settings: HEK293 cells stably expressing hERG alpha subunit.
Assay type: cell-based
Description: Following harvest, cells were transferred to the cell reservoir of a 384 channel automated patch clamp device and stored there at 20° C. until usage.
Upon start of the automated voltage clamp procedure, hERG cells were transferred to a 384 well patch clamp chip (pipette resistance of ˜[…] (2) prefilled with external solution (containing in mM: 143 NaCl, 4 KCl, 2 CaCl2), 1 MgCl2, 5 glucose, 10 HEPES; pH 7.4 (NaOH)). Underpressure was applied underneath the glass bottom of the patch clamp chip to position the hERG cells on the recording sites in the glass bottom of the chip. Following successful cell catch, underpressure was stopped and a seal enhancing solution (containing in mM: 78 NaCl, 60 NMDG, 4 KCl, 10 CaCl2), 1 MgCl2, 5 glucose, 10 HEPES; pH 7.4 (HCl)) was added to the hERG cells to facilitate the formation of stable seals between the membranes of the hERG cells and the glass next to the recording sites. Then, hERG cells were washed several times with wash solution (containing in mM: 87 NaCl, 60 NMDG, 4 KCl, 2 CaCl2), 1 MgCl2, 5 glucose, 10 HEPES; pH 7.4 (HCl)) to remove excess seal enhancing solution. In the meantime, the membrane parts of the hERG cells covering the recording sites were exposed to internal solution (containing in mM: 10 NaCl, 123 KF, 10 EGTA, 10 HEPES; pH 7.2 (KOH)) supplemented with 5-20 μM Escin, and the perforated patch configuration was established. Next, the holding potential was stepwise adjusted to −80 mV, capacitance was compensated, and a series of defined voltage commands was initiated to trigger the hERG current response from the hERG cells (−80 mV for 200 ms, +20 mV for 1000 ms, −40 mV for 500 ms; repeated at a frequency of 0.1 Hz). To determine whether the test item inhibits hERG, different solutions were sequentially applied to the hERG cells: First, a negative control (i.e. wash solution supplemented with 0.3% DMSO and 0.01% HSA) was applied for at least 3 min to investigate the basic electrophysiological properties of the hERG cells as well as define their standard current response. Next, a solution containing the test item at a final concentration of (0.1, 1, or 10) μM was applied for 10 min to measure eventual inhibitory effects of the test item on the hERG current (—the test item solution was produced from a 10 mM DMSO stock by using an automated pipetting device and sequential dilution). Finally, a positive control (i.e. wash solution supplemented with 0.3% DMSO, 0.01% HSA, and 10 μM quinidine) was added to the cells for ˜3 min to block the hERG current and, thereby, define the maximum inhibition. For data analysis, experimental results were processed using the automated patch clamp device-specific software as well as a custom-made software, and TIBCO Spotfire. For each successful recording, hERG tail current amplitudes were averaged from three consecutive current responses at the end of the negative control phase, test item phase, and positive control phase, respectively. Resulting mean hERG tail current amplitudes were normalized to the mean hERG tail current amplitude at the end of the negative control phase with nominal 0% inhibition as well as the hERG tail current amplitude at the end of the positive control phase with nominal 100% inhibition. Then, the effect of the test item was calculated as a percentage inhibition value at the test item concentration applied. Finally, percentage inhibition values from all successful recordings at a particular test item concentration were averaged and combined to construct a standard sigmoidal dose response curve, determine the half maximal inhibitory concentration (IC50) of the test item as well as extrapolate its IC20.

human Ether-a-go-go-Related Gene (hERG) potassium channel, sequence (Q12809 whole entry): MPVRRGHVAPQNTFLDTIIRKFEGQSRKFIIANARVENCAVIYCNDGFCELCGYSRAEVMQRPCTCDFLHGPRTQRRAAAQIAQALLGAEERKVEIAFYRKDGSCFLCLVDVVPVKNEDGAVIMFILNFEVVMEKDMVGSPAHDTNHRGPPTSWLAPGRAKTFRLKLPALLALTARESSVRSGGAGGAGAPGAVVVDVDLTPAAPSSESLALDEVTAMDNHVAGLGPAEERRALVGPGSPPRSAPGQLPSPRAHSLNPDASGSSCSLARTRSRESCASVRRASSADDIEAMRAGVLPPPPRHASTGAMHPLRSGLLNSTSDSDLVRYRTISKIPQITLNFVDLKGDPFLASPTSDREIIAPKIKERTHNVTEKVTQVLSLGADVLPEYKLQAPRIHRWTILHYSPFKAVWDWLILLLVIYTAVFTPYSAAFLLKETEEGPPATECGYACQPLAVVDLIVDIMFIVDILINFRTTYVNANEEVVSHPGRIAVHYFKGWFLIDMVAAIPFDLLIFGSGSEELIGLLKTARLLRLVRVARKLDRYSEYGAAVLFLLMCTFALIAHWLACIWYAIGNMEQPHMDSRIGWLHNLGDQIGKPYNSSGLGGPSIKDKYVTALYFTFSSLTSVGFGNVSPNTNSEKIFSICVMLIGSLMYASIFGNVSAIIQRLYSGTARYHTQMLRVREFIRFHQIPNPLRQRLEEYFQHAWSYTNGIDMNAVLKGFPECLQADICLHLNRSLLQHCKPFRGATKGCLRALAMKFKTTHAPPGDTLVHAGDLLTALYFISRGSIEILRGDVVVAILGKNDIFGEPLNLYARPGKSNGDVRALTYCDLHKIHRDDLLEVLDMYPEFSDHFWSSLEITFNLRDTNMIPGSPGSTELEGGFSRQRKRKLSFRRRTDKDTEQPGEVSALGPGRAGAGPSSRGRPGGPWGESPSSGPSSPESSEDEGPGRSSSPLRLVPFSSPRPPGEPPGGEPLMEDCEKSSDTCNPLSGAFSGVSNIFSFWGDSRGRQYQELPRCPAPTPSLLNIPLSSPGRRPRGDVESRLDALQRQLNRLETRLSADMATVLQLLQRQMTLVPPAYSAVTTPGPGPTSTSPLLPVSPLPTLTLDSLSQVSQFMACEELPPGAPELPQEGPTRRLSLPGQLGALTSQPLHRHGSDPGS

CC(C)n1ccc(CC(=O)Nc2cc(-c3[nH]c4cccnc4c3-c3ccccn3)ccn2)n1 [Example 28, 2-(1-isopropylpyrazol-3-yl)-N-[4-[3-(2-pyridyl)-^1H-pyrrolo[3,2-b]pyridin-2-yl]-2-pyridyl]acetamide] and Cc1nc(CC(=O)Nc2cc(-c3[nH]c4cccnc4c3-c3ccccn3)ccn2)cs1 [Example 3, 2-(2-methylthiazol-4-yl)-N-[4-[3-(2-pyridyl)-^1H-pyrrolo[3,2-b]pyridin-2-yl]-2-pyridyl]acetamide] are within 1.5-fold of each other in IC50: 8.69 µM for the first, 5.98 µM for the second.

Going from O=C(Cc1cc2ccccn2n1)Nc1cc(-c2[nH]c3cccnc3c2-c2ccccn2)ccn1 [Example 15, 2-pyrazolo[1,5-a]pyridin-2-yl-N-[4-[3-(2-pyridyl)-^1H-pyrrolo[3,2-b]pyridin-2-yl]-2-pyridyl]acetamide] to O=C(Cc1cnc2ccccc2n1)Nc1cc(-c2[nH]c3cccnc3c2-c2ccccn2)ccn1 [Example 6, N-[4-[3-(2-pyridyl)-^1H-pyrrolo[3,2-b]pyridin-2-yl]-2-pyridyl]-2-quinoxalin-2-yl-acetamide], the IC50 rises from 1.45 µM to 5.35 µM (3.7-fold).

First: Cn1nc(CC(=O)Nc2cc(-c3[nH]c4cccnc4c3-c3ccccn3)ccn2)cc1C(F)(F)F [Example 21, 2-[1-methyl-5-(trifluoromethyl)pyrazol-3-yl]-N-[4-[3-(2-pyridyl)-^1H-pyrrolo[3,2-b]pyridin-2-yl]-2-pyridyl]acetamide]
Second: O=C(Cc1cnco1)Nc1cc(-c2[nH]c3cccnc3c2-c2ccccn2)ccn1 [Example 4]
The IC50 of the first is lower: 0.81 µM for the first, over 10 µM for the second. The first is the more potent here.

Work on Cc1nc(C)c(CC(=O)Nc2cc(-c3[nH]c4cccnc4c3-c3ccccn3)ccn2)s1 [Example 18, 2-(2,4-dimethylthiazol-5-yl)-N-[4-[3-(2-pyridyl)-^1H-pyrrolo[3,2-b]pyridin-2-yl]-2-pyridyl]acetamide] yielded an IC50 of 2.05 µM.
